Data: patent US7067261B2 (priority 2001, dated 2006)

Columns and labels:
[1] = test system: Reserpine-Induced Dopamine Depletion—Mice; conditions: mouse, in vivo; cited from earlier work
caspase 3 = format: cell-based, rat
PC12 cells = format: cell-based, rat
[2] = test system: poly-(ADP-ribose)polymerase (PARP); format: cell-based, rat
α7 = α7 (Homo sapiens, UniProt P36544); experiment: biochemical; format: binding
α7 nAChR = α7 nAChR (Homo sapiens, UniProt P36544); format: cell-based
ganglionic subtype α3β4 = ganglionic subtype α3β4 (Homo sapiens, UniProt P30926+P32297); format: cell-based
muscle subtype α1β1γδ = muscle subtype α1β1γδ (Homo sapiens, UniProt P02708+P07510+Q07001); format: cell-based
α3β2 = α3β2 (Homo sapiens, UniProt P17787+P32297); format: cell-based
α4β2 = α4β2 (Homo sapiens, UniProt P17787+P43681); format: cell-based
JAK2 = format: cell-based
PI-3 kinase = format: cell-based, rat
Akt = format: cell-based, rat
[3] = target: complex formation between Aβ(1–42) and α7-nAChR (Rattus norvegicus, UniProt Q05941); format: cell-based
[4] = target: JAK2 complex formation with the α7 receptor (Rattus norvegicus, UniProt Q05941)
[5] = test system: 6-OHDA (Partial Lesion)—Rats; conditions: rat, in vivo, sc, 1 mg/kg; cited from earlier work
[6] = test system: methamphetamine toxicity in mice; conditions: mouse, in vivo; cited from earlier work
MPTP effects, Mice = conditions: mouse, in vivo; cited from earlier work

Chain of complex formation between Aβ(1–42) and α7-nAChR (Q05941 23-502, one chain of several): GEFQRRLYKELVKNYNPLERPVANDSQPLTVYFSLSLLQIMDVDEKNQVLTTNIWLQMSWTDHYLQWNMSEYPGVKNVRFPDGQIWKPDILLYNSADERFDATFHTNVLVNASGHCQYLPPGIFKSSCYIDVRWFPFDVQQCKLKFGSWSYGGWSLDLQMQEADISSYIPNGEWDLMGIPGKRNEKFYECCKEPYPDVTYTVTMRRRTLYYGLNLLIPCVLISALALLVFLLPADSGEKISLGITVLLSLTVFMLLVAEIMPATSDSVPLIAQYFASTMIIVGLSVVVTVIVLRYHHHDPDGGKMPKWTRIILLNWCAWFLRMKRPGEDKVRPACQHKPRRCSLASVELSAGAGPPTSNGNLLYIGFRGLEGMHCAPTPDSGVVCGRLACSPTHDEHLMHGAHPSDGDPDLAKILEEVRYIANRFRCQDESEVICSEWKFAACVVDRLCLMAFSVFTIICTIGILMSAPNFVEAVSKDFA
Chain of JAK2 complex formation with the α7 receptor (Q05941 23-502): as the sequence (Q05941 23-502, one chain of several) above
Chain of JAK2 complex formation with the α7 receptor (Q62689 whole entry, further chain): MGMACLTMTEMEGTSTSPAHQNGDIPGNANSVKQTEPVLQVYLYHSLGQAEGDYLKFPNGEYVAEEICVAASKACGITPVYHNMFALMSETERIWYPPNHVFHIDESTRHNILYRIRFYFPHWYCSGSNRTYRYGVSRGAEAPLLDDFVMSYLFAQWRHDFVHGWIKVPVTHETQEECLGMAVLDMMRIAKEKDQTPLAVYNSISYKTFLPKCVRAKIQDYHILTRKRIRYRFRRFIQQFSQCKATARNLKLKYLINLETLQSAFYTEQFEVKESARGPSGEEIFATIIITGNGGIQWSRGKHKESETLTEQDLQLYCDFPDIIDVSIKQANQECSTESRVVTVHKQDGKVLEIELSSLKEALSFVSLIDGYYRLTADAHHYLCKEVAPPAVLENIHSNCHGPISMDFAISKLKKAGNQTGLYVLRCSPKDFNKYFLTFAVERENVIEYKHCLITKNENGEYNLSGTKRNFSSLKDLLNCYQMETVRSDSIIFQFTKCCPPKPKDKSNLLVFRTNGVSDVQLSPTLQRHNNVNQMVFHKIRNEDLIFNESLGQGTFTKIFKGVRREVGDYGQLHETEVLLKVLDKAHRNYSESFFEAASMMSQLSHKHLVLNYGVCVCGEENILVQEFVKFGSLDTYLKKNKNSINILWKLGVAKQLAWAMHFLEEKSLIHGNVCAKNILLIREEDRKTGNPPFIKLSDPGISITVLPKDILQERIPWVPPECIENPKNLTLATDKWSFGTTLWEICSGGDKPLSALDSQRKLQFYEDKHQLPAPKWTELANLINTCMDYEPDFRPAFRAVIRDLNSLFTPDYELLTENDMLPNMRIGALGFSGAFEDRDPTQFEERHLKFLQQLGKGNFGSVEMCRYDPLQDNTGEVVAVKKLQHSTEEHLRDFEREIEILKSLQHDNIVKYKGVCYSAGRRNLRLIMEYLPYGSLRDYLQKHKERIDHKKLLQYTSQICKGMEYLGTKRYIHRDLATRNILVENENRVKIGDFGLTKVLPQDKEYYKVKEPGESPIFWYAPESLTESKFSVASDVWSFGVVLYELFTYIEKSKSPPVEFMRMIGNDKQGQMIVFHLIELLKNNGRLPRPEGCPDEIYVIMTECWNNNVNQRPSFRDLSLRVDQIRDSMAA
Chain of muscle subtype α1β1γδ (P07510 23-517): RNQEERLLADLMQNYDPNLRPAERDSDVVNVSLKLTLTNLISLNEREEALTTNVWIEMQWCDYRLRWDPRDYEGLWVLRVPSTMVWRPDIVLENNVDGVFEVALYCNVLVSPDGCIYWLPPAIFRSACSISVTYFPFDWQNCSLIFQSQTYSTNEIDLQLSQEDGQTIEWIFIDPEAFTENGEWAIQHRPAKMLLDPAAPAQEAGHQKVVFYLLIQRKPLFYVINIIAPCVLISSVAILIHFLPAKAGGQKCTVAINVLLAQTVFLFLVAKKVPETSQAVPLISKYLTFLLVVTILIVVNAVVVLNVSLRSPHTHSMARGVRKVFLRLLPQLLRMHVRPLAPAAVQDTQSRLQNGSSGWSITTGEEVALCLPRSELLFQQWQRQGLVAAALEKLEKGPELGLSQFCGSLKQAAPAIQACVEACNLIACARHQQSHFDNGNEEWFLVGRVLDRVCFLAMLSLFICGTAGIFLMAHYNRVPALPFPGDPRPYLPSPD
Chain of muscle subtype α1β1γδ (Q07001 22-517): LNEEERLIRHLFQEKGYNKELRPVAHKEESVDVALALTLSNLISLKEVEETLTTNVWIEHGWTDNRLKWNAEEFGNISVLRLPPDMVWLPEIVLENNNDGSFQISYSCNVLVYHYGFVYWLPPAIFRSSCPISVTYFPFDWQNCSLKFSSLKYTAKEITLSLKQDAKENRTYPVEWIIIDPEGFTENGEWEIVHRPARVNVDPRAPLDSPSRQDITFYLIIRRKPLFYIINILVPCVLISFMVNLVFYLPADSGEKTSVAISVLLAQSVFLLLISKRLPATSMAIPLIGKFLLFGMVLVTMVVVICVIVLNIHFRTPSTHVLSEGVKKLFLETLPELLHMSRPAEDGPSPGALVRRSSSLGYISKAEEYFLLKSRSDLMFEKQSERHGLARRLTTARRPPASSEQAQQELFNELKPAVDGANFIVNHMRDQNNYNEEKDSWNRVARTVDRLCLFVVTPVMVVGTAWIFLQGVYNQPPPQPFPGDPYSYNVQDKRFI
Chain of muscle subtype α1β1γδ (P02708 21-457): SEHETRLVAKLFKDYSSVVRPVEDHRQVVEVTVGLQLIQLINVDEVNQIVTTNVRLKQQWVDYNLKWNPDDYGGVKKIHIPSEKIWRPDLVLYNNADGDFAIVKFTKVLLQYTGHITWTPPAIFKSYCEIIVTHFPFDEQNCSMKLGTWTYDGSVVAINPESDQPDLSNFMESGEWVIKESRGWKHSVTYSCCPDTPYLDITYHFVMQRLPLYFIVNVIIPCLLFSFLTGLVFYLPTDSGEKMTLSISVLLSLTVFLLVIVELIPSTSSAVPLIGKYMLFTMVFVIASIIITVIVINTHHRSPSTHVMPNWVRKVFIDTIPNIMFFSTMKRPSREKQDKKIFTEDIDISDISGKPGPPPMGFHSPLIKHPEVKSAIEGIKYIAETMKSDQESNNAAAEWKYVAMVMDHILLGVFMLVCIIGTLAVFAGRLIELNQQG
Chain of muscle subtype α1β1γδ (P11230 24-501, further chain): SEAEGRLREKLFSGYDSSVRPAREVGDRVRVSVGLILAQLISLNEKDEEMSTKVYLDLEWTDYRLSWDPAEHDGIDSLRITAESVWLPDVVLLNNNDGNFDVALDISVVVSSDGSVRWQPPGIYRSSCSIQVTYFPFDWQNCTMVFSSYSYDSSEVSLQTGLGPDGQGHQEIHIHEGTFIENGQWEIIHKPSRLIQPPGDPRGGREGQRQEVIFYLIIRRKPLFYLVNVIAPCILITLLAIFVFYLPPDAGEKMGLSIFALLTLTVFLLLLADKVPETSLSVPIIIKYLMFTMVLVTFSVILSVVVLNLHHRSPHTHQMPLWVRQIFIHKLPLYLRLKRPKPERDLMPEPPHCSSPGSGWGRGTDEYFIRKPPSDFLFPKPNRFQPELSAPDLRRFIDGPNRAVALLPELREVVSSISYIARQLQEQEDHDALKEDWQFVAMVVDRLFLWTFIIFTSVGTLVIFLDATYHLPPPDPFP
Chain of α7 nAChR (P36544 23-502): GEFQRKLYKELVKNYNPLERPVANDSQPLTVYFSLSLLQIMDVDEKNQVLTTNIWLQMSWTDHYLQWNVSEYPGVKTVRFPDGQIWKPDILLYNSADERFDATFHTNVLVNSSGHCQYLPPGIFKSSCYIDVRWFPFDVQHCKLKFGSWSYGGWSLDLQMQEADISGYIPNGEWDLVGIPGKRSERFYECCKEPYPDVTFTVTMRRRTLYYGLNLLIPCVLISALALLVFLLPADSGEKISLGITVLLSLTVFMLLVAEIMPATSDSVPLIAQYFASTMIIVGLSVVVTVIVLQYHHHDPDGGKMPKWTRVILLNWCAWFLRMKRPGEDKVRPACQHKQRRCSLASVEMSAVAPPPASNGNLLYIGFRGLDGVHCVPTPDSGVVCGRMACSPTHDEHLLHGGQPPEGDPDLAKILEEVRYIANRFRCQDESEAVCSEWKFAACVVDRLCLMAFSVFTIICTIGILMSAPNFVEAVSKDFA
Chain of α7 (P36544 23-502): as above

CNC1(C)C2CCC(C2)C1(C)C (stereo not shown) [mecamylamine]
effect on NIC blockade of reserpine-induced dopamine depletion [1]: blocked

Aβ(1–42)
caspase 3 activity (caspase 3): significant increase | PC12 cell number (PC12 cells): significant decrease | PARP cleavage / induction [2]: cleaved

c1cncc(C2CCC3CCN2CC3)c1 (stereo not shown) [TC-1698, 2-Pyridin-3-yl-1-aza-bicyclo[3.2.2]nonane]
Ki (α7): 0.8 nM | potency in activating α7 nAChR relative to acetylcholine (α7 nAChR): 50 fold | activation of ganglionic subtype α3β4 (ganglionic subtype α3β4): does not activate | activation of muscle subtype α1β1γδ (muscle subtype α1β1γδ): does not activate | activation of neuronal subtype α3β2 (α3β2): does not activate | activation of neuronal subtype α4β2 (α4β2): does not activate | phosphorylation of Jak-2 (JAK2): induces phosphorylation of Jak-2 | activation of PI-3 Kinase (PI-3 kinase): activation | activation of Akt (Akt): activation

Ang II (DRVYIHPF; Angiotensin-2; UniProt P01019 25-32, looked up)
effect of preincubation on nicotine-induced tyrosine phosphorylation of JAK2 (JAK2): blocks | PC12 cell number (PC12 cells): significantly reduced | effect on nicotine-induced neuroprotection (cell viability) (PC12 cells): complete reversal | PARP cleavage / induction [2]: nicotine-insensitive PARP induction

C[N+](C)(C)CCCCCC[N+](C)(C)C [hexamethonium]
effect on NIC blockade of reserpine-induced dopamine depletion [1]: not

N#C/C(=C/c1ccc(O)c(O)c1)C(=O)NCc1ccccc1 [AG-490]
effect on TC-1698-induced activation of JAK2 (JAK2): suppression of activation | effect on basal and nicotine-stimulated JAK2 tyrosine phosphorylation (JAK2): inhibits | effect on TC-1698-induced activation of PI-3 Kinase (PI-3 kinase): suppression of activation | effect on nicotine-induced tyrosine phosphorylation of PI-3K (PI-3 kinase): inhibits | effect on TC-1698-induced activation of Akt (Akt): suppression of activation | effect on nicotine-induced serine phosphorylation of Akt (Akt): inhibits | effect on co-immunoprecipitation (complex formation) of Aβ(1–42) and α7-nAChR [3]: prevented | effect on nicotine inhibition of Aβ(1–42)-induced caspase 3 activation (caspase 3): prevented

CN1CCCC1c1cccnc1 (stereo not shown) [nicotine]
time to JAK2 tyrosine phosphorylation (JAK2): 5 to 10 min | effect on co-immunoprecipitation (complex formation) of Aβ(1–42) and α7-nAChR [3]: blocked | effect on Aβ(1–42)-induced activation of caspase 3 (caspase 3; PC12 cells, nicotine 10 μM, Aβ(1–42) 100 nM, P<0.01): blocked | effect on Ang II-induced apoptosis (cell number) (PC12 cells; PC12 cells, Ang II 100 nM, 8 hours): not affected | effect on Aβ(1–42)-induced cell death when co-incubated with AG-490 (PC12 cells; PC12 cells, Aβ(1–42) 100 nM, 8 hours): no effect | effect on cell death induced by Aβ(1–42) (PC12 cells; PC12 cells, Aβ(1–42) 100 nM, 8 hours, P<0.01): significantly reduced | time to association of JAK2 with the α7 receptor [4]: ≤ 5 min | reserpine-induced dopamine depletion [1]: blocked | dopaminergic neurotoxicity (loss of striatal dopamine) induced by 6-OHDA [5]: attenuates | methamphetamine toxicity (brain levels) [6]: prevents | striatal MPP+ levels induced by MPTP (MPTP effects, Mice): reduces
